From US20180099931A1 (AbbVie S.à.r.l., priority 2016, published 2018)
pEC50: −log10 of the molar value. Where two headings read alike, the source gives them in different places.

Molecular target: T1, F508delCFTR (Homo sapiens, UniProt P13569, DEL508-508)
T1 construct: expressed in transfected cells; host or cells: CFBE41o- human lung-derived epithelial cells (CFBE4lo-F508delCFTR-HRP), doxycycline-inducible
Assay: Cell Surface Expression-Horse Radish Peroxidase (CSE-HRP) Assay;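 for Maximum % activity (with co-corrector): co-corrector and positive control are both the same reference corrector at 2 µM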;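 for Maximum % activity (without co-corrector): percent of the 2 µM on-plate positive control corrector response above DMSO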
Type: cell-based
Conditions: for Maximum % activity (with co-corrector): with co-corrector (2 μM); for Maximum % activity (with co-corrector) / Emax: maximum at any tested concentration, normalized to on-plate positive control; for Emax: without co-corrector, read-out: Maximum % activity (without co-corrector)

[1] = test compound without co-corrector, read-out: EC50 (without co-corrector)
[2] = with co-corrector (2 μM of 3-[(2R,4R)-4-({[1-(2,2-difluoro-1,3-benzodioxol-5-yl)cyclopropyl]carbonyl}amino)-7-methoxy-3,4-dihydro-2H-chromen-2-yl]benzoic acid), read-out: EC50 (with co-corrector)
[3] = CSE-HRP, test compound without co-corrector, read-out: EC50 (without co-corrector)
[4] = CSE-HRP, with co-corrector (2 μM of 3-[(2R,4R)-4-({[1-(2,2-difluoro-1,3-benzodioxol-5-yl)cyclopropyl]carbonyl}amino)-7-methoxy-3,4-dihydro-2H-chromen-2-yl]benzoic acid), read-out: EC50 (with co-corrector)

T1 sequence (P13569 with tags, fused parts or gaps DEL508-508): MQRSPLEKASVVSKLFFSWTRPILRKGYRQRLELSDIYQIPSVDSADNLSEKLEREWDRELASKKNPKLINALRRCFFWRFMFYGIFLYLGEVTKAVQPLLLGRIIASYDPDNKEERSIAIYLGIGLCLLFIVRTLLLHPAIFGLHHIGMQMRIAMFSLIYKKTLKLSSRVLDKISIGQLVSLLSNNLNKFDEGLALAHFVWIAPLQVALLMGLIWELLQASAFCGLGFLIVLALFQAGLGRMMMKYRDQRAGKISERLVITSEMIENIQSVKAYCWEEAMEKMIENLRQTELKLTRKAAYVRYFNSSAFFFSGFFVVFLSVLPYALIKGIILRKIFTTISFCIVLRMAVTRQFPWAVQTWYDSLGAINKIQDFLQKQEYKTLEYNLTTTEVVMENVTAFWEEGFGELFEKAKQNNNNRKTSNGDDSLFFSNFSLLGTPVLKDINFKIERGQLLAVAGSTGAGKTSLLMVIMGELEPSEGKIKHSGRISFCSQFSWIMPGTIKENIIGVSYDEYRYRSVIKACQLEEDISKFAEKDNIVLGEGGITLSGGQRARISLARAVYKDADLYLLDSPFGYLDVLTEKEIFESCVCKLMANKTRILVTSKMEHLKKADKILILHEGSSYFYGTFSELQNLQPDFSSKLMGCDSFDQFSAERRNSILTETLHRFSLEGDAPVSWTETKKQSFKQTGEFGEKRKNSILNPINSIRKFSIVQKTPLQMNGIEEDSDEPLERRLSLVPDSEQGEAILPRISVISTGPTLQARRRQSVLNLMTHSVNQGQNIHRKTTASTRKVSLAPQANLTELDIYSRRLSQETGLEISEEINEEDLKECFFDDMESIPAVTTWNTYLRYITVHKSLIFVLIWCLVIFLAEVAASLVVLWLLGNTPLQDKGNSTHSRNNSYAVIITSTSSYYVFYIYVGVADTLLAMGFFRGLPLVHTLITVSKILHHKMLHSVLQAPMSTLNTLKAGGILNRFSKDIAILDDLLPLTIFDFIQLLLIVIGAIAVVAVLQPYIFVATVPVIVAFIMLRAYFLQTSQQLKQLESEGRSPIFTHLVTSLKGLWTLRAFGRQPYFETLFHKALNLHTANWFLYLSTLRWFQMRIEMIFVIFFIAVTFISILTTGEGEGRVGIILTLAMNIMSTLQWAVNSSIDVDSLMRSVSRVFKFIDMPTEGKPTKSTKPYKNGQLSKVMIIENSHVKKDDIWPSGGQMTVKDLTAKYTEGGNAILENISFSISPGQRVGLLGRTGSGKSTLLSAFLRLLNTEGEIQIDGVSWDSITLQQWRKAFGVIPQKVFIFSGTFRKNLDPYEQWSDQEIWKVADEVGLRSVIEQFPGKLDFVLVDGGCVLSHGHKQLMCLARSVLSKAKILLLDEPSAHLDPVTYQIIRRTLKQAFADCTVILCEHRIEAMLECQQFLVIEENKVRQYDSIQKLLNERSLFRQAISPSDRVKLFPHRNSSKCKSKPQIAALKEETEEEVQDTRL

In the case of `COc1ccc(C(C)(C)C)cc1CN[C@H]1[C@H](C(C)(C)C)[C@@H](C(=O)O)N(C(=O)OC(C)(C)C)[C@H]1c1cccnc1OC` [Example I-232], the pEC50 [1] was 5.00 to 6.00, the pEC50 [2] was 5.00 to 6.00 and the “Maximum % activity (with co-corrector)” value was “+++ (≥350)”. The Emax was over 200%.
For `COc1ccc(C(C)(C)C)cc1CN[C@H]1[C@H](C(C)(C)C)[C@@H](C(=O)O)N(C(=O)[C@H](C)c2ccccc2)[C@H]1c1cccnc1N(C)C` [Example I-233], the pEC50 [1] was 5.00 to 6.00, the pEC50 [2] was 5.00 to 6.00 and the “Maximum % activity (with co-corrector)” value was “+++ (≥350)”. It also gave an Emax of 100 to 200%.
For `COc1nc(C(C)(C)C)ccc1CN[C@H]1[C@H](C(C)(C)C)[C@@H](C(=O)O)N(C(=O)OC(C)C)[C@H]1c1cccnc1OC` [Example I-234], the pEC50 [1] was 5.00 to 6.00, the pEC50 [2] was over 6.00 and the “Maximum % activity (with co-corrector)” value was “+++ (≥350)”. For the same compound, the Emax was 100 to 200%.
In the case of `COc1nc(C(C)(C)C)ccc1CN[C@H]1[C@H](C(C)(C)C)[C@@H](C(=O)O)N(C(=O)[C@@H]2CCCCO2)[C@H]1c1cccnc1N(C)C` [Example I-235], the pEC50 [1] was 5.00 to 6.00, the pEC50 [2] was over 6.00 and the “Maximum % activity (with co-corrector)” value was “+++ (≥350)”. For the same compound, the Emax was 100 to 200%.
`COc1ncc(C2CCC2)cc1CN[C@H]1[C@H](C23CC(C2)C3)[C@@H](C(=O)O)N(C(=O)OC(C)C)[C@H]1c1ccccc1` [Example I-236] was tested, and the pEC50 [1] was 5.00 to 6.00, the pEC50 [2] was 5.00 to 6.00 and the “Maximum % activity (with co-corrector)” value was “+++ (≥350)”. The Emax was 100 to 200%.
In the case of `COc1ncc(C2CCC2)cc1CN[C@H]1[C@H](C(C)(C)C)[C@@H](C(=O)O)N(C(=O)C2CCCCC2)[C@H]1c1cccnc1OC` [Example I-237], the pEC50 [1] was 5.00 to 6.00, the pEC50 [2] was 5.00 to 6.00 and the “Maximum % activity (with co-corrector)” value was “+++ (≥350)”. For the same compound, the Emax was 100 to 200%.
With `COc1ccc(C2(C)CCC2)cc1CN[C@H]1[C@H](C(C)(C)C)[C@@H](C(=O)O)N(C(=O)C2CCCCC2)[C@H]1c1cccnc1OC` [Example I-238] the pEC50 [1] was 5.00 to 6.00, the pEC50 [2] was over 6.00 and the “Maximum % activity (with co-corrector)” value was “+++ (≥350)”. The Emax was over 200%.
For `COc1ccc(C(C)(C)C)cc1CN[C@H]1[C@H](C(C)(C)C)[C@@H](C(=O)O)N(C(=O)[C@H](C)c2ccccc2)[C@H]1c1cccnc1OC` [Example I-239], the pEC50 [1] was 5.00 to 6.00, the pEC50 [2] was 5.00 to 6.00 and the “Maximum % activity (with co-corrector)” value was “+++ (≥350)”. For the same compound, the Emax was 100 to 200%.
With `COc1ncc(C(F)(F)F)cc1CN[C@H]1[C@H](C(C)(C)C)[C@@H](C(=O)O)N(C(=O)[C@H](C)c2ccccc2)[C@H]1c1cccnc1OC` [Example I-240] the pEC50 [1] was 5.00 to 6.00, the pEC50 [2] was 5.00 to 6.00 and the “Maximum % activity (with co-corrector)” value was “+++ (≥350)”. It also gave an Emax of under 100%.
For `COc1nc(C2CCC2)ccc1CN[C@H]1[C@H](C(C)(C)C)[C@@H](C(=O)O)N(C(=O)C2CCCCC2)[C@H]1c1ccccc1` [Example I-242], the pEC50 [1] was 5.00 to 6.00, the pEC50 [2] was 5.00 to 6.00 and the “Maximum % activity (with co-corrector)” value was “+++ (≥350)”. The Emax was 100 to 200%.
`COc1ncc(C2CCC2)cc1CN[C@H]1[C@H](C(C)(C)C)[C@@H](C(=O)O)N(C(=O)C2C3CCCC32)[C@H]1c1cccnc1OC` (stereo partly drawn) [Example I-243] was tested, and the pEC50 [1] was 5.00 to 6.00, the pEC50 [2] was 5.00 to 6.00 and the “Maximum % activity (with co-corrector)” value was “+++ (≥350)”. It also gave an Emax of 100 to 200%.
For `COc1ccc(C(C)(C)C)cc1CN[C@H]1[C@H](C(C)(C)C)[C@@H](C(=O)O)N(C(=O)OC2COC2)[C@H]1c1ccccc1` [Example I-244, (2S,3S,4S,5S)-3-tert-butyl-4-{[(5-tert-butyl-2-methoxyphenyl)methyl]amino}-1-{[(oxetan-3-yl)oxy]carbonyl}-5-phenylpyrrolidine-2-carboxylic acid], the pEC50 [1] was 5.00 to 6.00, the pEC50 [2] was 5.00 to 6.00 and the “Maximum % activity (with co-corrector)” value was “+++ (≥350)”. The Emax was 100 to 200%.
With `COc1ccc(S(F)(F)(F)(F)F)cc1CN[C@H]1[C@H](C(C)(C)C)[C@@H](C(=O)O)N(C(=O)OC(C)C)[C@H]1c1cccnc1N(C)C` [Example I-245] the pEC50 [1] was 5.00 to 6.00, the pEC50 [2] was 5.00 to 6.00 and the “Maximum % activity (with co-corrector)” value was “+++ (≥350)”. For the same compound, the Emax was over 200%.
`COc1ccc(C(C)(C)C)cc1CN[C@H]1[C@H](C(C)(C)C)[C@@H](C(=O)O)N(C(=O)[C@@H]2CCCN(C(=O)OC(C)C)C2)[C@H]1c1ccccc1` [Example I-246, (2S,3S,4S,5S)-3-tert-butyl-4-{[(5-tert-butyl-2-methoxyphenyl)methyl]amino}-5-phenyl-1-[(3R)-1-{[(propan-2-yl)oxy]carbonyl}piperidine-3-carbonyl]pyrrolidine-2-carboxylic acid] was tested, and the pEC50 [1] was 5.00 to 6.00, the pEC50 [2] was 5.00 to 6.00 and the “Maximum % activity (with co-corrector)” value was “+++ (≥350)”. The Emax was over 200%.
`CC(C)(C)c1ccc(CN[C@H]2[C@H](C(C)(C)C)[C@@H](C(=O)O)N(C(=O)[C@@H]3CCCC(F)(F)C3)[C@H]2c2ccccc2)c(Cl)n1` [Example I-247] was tested, and the pEC50 [1] was 5.00 to 6.00, the pEC50 [2] was 5.00 to 6.00 and the “Maximum % activity (with co-corrector)” value was “+++ (≥350)”. It also gave an Emax of under 100%.
`COc1ccc(C(C)(C)C)cc1CN[C@H]1[C@H](C(C)(C)C)[C@@H](C(=O)O)N(C(=O)C2(c3ccccc3)CC2)[C@H]1c1cccnc1OC` [Example I-248] was tested, and the pEC50 [1] was 5.00 to 6.00, the pEC50 [2] was 5.00 to 6.00 and the “Maximum % activity (with co-corrector)” value was “+++ (≥350)”. The Emax was 100 to 200%.
With `COc1nc2ccccc2cc1CN[C@H]1[C@H](C(C)(C)C)[C@@H](C(=O)O)N(C(=O)OC(C)C)[C@H]1c1ccccc1C(C)C` [Example I-250] the pEC50 [3] was 5.00 to 6.00, the pEC50 [4] was over 6.00 and the “Maximum % activity (with co-corrector)” value (CSE-HRP) was “+++ (≥350)”. For the same compound, the Emax (CSE-HRP) was over 200%.
For `COc1cc2c(cc1CN[C@H]1[C@H](C(C)(C)C)[C@@H](C(=O)O)N(C(=O)OC(C)C)[C@H]1c1cccnc1N(C)C)C(C)(C)CCC2(C)C` [Example I-251], the pEC50 [3] was 5.00 to 6.00, the pEC50 [4] was 5.00 to 6.00 and the “Maximum % activity (with co-corrector)” value (CSE-HRP) was “+++ (≥350)”. It also gave an Emax (CSE-HRP) of 100 to 200%.
`COc1ccc(C(F)(F)F)cc1CN[C@H]1[C@H](C(C)(C)C)[C@@H](C(=O)O)N(C(=O)OC(C)C)[C@H]1c1cccc(Cl)c1` [Example I-252] was tested, and the pEC50 [3] was 5.00 to 6.00, the pEC50 [4] was 5.00 to 6.00 and the “Maximum % activity (with co-corrector)” value (CSE-HRP) was “+++ (≥350)”. For the same compound, the Emax (CSE-HRP) was over 200%.
With `CC[C@H](C(=O)N1[C@H](C(=O)O)[C@@H](C(C)(C)C)[C@H](NCc2cc(C(C)(C)C)ccc2OC)[C@@H]1c1cccnc1OC)c1ccccc1` [Example I-253] the pEC50 [3] was 5.00 to 6.00, the pEC50 [4] was 5.00 to 6.00 and the “Maximum % activity (with co-corrector)” value (CSE-HRP) was “+++ (≥350)”. It also gave an Emax (CSE-HRP) of 100 to 200%.
In the case of `COc1ccc(C(C)(C)C)cc1CN[C@H]1[C@H](C(C)(C)C)[C@@H](C(=O)O)N(C(=O)[C@@]2(C)COc3cc4c(cc32)OC(F)(F)O4)[C@H]1c1cccnc1OC` [Example I-254], the pEC50 [3] was 5.00 to 6.00, the pEC50 [4] was 5.00 to 6.00 and the “Maximum % activity (with co-corrector)” value (CSE-HRP) was “+++ (≥350)”. The Emax (CSE-HRP) was under 100%.
For `COc1cc(C(F)(F)F)ccc1CN[C@H]1[C@H](C(C)(C)C)[C@@H](C(=O)O)N(C(=O)[C@@H]2CCC[C@@H](OC)C2)[C@H]1c1ccccc1` [Example I-255], the pEC50 [3] was 5.00 to 6.00, the pEC50 [4] was 5.00 to 6.00 and the “Maximum % activity (with co-corrector)” value (CSE-HRP) was “+++ (≥350)”. It also gave an Emax (CSE-HRP) of under 100%.
`COc1ncc(C(F)(F)F)cc1CN[C@H]1[C@H](C(C)(C)C)[C@@H](C(=O)O)N(C(=O)C2CCCCC2)[C@H]1c1ccccc1C` [Example I-258] was tested, and the pEC50 [3] was over 6.00, the pEC50 [4] was over 6.00 and the “Maximum % activity (with co-corrector)” value (CSE-HRP) was “+++ (≥350)”. It also gave an Emax (CSE-HRP) of 100 to 200%.
In the case of `COc1ccc(C(C)(C)C)cc1CN[C@H]1[C@H](C(C)(C)C)[C@@H](C(=O)O)N(C(=O)[C@@H]2CCCO2)[C@H]1c1ccccc1C` [Example I-261], the pEC50 [3] was 5.00 to 6.00, the pEC50 [4] was 5.00 to 6.00 and the “Maximum % activity (with co-corrector)” value (CSE-HRP) was “+++ (≥350)”. For the same compound, the Emax (CSE-HRP) was over 200%.
